In patent publication US6410564B1, “Naphthyl compounds, intermediates, processes, compositions, and methods” (Eli Lilly and Company, priority 1994, dated 2002):
Where two headings read alike, the source gives them in different places.

Legend:
[1] = test system: Uterine Eosinophil Peroxidase (EPO); settings: rat, in vivo; for Uterine EPO (V. max): po
Excerpt: (§1) Seventy-five day old female Sprague Dawley rats (weight range of 200 to 225 g) were obtained from Charles River Laboratories (Portage, Mich.). The animals were either bilaterally ovariectomized (OVX) or exposed to a Sham surgical procedure at Charles River Laboratories, and then shipped after one week. Upon arrival, they were housed in metal hanging cages in groups of 3 or 4 per cage and had ad libitum access to food (calcium content approximately 0.5%) and water for one week. Room temperature was maintained at 22.2°±1.7° C. with a minimum relative humidity of 40%. The photoperiod in the room was 12 hours light and 12 hours dark.
(§2) Dosing Regimen Tissue Collection. After a one week acclimation period (therefore, two weeks post-OVX) daily dosing with test compound was initiated. 17α-ethynyl estradiol or the test compound were given orally, unless otherwise stated, as a suspension in 1% carboxymethylcellulose or dissolved in 20% cyclodextrin. Animals were dosed daily for 4 days. Following the dosing regimen, animals were weighed and anesthetized with a ketamine: Xylazie (2:1, V:V) mixture and a blood sample was collected by cardiac puncture. The animals were then sacrificed by asphyxiation with CO2, the uterus was removed through a midline incision, and a wet uterine weight was determined.
Uterine Eosinophil Peroxidase (EPO) Assay. Uteri were kept at 4° C. until time of enzymatic analysis. The uteri were then homogenized in 50 volumes of 50 mM Tris Buffer (pH −8.0) containing 0.005% Triton X-100. Upon addition of 0.01% hydrogen peroxide and 10 mM O-phenylenediamine (final concentrations) in Tris buffer, increase in absorbance was monitored for one minute at 450 nm. The presence of eosonophils in the uterus is an indication of estrogenic activity of a compound. The maximal velocity of a 15 second interval was determined over the initial, linear portion of the reaction curve.
As is expressed in the below data, estrogenicity also was assessed by evaluating the adverse response to eosinophil infiltration into the uterus.
(§3) The data presented in the Tables 1 below reflects the response of 5 to 6 rats per treatment.

[2] = test system: ovariectomized (OVX) female Sprague Dawley rats; experiment: Osteoporosis Test Procedure: distal femur metaphysis X-ray image analysis, OVX rats, 35 days; assay type: in vivo, rat; settings: for Distal Femur Metaphysis (X-ray Image Analysis-Gray Score): mean ± SEM
Excerpt: as §1
Following the General Preparation Procedure, infra, the rats were treated daily for 35 days (6 rats per treatment group) and sacrificed by carbon dioxide asphyxiation on the 36th day. The 35 day time period was sufficient to allow maximal reduction in bone density, measured as described herein. At the time of sacrifice, the uteri were removed, dissected free of extraneous tissue, and the fluid contents were expelled before determination of wet weight in order to confirm estrogen deficiency associated with complete ovariectomy. […] The uteri were then placed in 10% neutral buffered formalin to allow for subsequent histological analysis.
The right femurs were excised and digitilized x-rays generated and analyzed by an image analysis program (NIH image) at the distal metaphysis. The proximal aspect of the tibiae from these animals were also scanned by quantitative computed tomography.
In accordance with the above procedures, compounds of the present invention and ethynyl estradiol (EE2) in 20% hydroxypropyl β-cyclodextrin were orally administered to test animals. Distal femur metaphysis data presented in Tables 2 and 3 below are the results of formula I compound treatments compared to intact and ovariectomized test animals. Results are reported as the mean ± the standard error of the mean.

[3] = test system: ovariectomized (OVX) female Sprague Dawley rats; experiment: Serum cholesterol in OVX rats, 4-day dosing; assay type: in vivo, rat; settings: for Serum Cholesterol (% decrease vs. OVX) / inhibition in vivo at 0.01 mg/kg / inhibition in vivo at 0.1 mg/kg / inhibition in vivo at 1 mg/kg / inhibition in vivo at 10 mg/kg: oral daily for 4 days; for inhibition in vivo at 0.01 mg/kg / inhibition in vivo at 0.1 mg/kg / inhibition in vivo at 1 mg/kg / inhibition in vivo at 10 mg/kg: Rattus norvegicus, po, 96 h, read-out: Serum Cholesterol (% decrease vs. OVX)
Excerpt: as §1, §2
Cholesterol Analysis. Blood samples were allowed to clot at room temperature for 2 hours, and serum was obtained following centrifugation for 10 minutes at 3000 rpm. Serum cholesterol was determined using a Boehringer Mannheim Diagnostics high performance cholesterol assay. Briefly the cholesterol was oxidized to cholest-4-en-3-one and hydrogen peroxide. The hydrogen peroxide was then reacted with phenol and 4-aminophenazone in the pressure of peroxidase to produce a p-quinone imine dye, which was read spectrophotemetrically at 500 nm. Cholesterol concentration was then calculated against a standard curve. The entire assay was automated using a Biomek Automated Workstation.
(§4) Data presented in Table 1 below show comparative results among ovariectomized rats, rats treated with 17α-ethynyl estradiol (EE2; an orally available form of estrogen), and rats treated with certain compounds of the present invention. […] This uterine response to estrogen is well recognized in the art.
as §3

[4] = test system: MCF-7 breast adenocarcinoma cells; experiment: MCF-7 Proliferation Assay (tritiated thymidine); assay type: cell-based; settings: MCF-7 cells, 48 hours with drug, tritiated thymidine pulse 4 hours
Protocol: MCF-7 breast adenocarcinoma cells (ATCC HTB 22) were maintained in MEM (minimal essential medium, phenol red-free, Sigma, St. Louis, Mo.) supplimented with 10% fetal bovine serum (FBS) (V/V), L-glutamine ([…]), sodium pyruvate (1 mM), HEPES {(N-[2-hydroxyethyl]piperazine-N′-[2-ethanesulfonic acid]10 mM}, non-essential amino acids and bovine insulin (1 ug/mL) (maintenance medium). Ten days prior to assay, MCF-7 cells were switched to maintenance medium supplemented with 10% dextran coated charcoal stripped fetal bovine serum (DCC-FBS) assay medium) in place of 10% FBS to deplete internal stores of steroids. MCF-7 cells were removed from maintenance flasks using cell dissociation medium (Ca++/Mg++ free HBSS (phenol red-free) supplemented with 10 mM HEPES and 2 mM EDTA). Cells were washed twice with assay medium and adjusted to 80,000 cells/mL. Approximately 100 μL (8,000 cells) were added to flat-bottom microculture wells (Costar 3596) and incubated at 37° C. in a 5% CO2 humidified incubator for 48 hours to allow for cell adherence and equilibration after transfer. Serial dilutions of drugs or DMSO as a diluent control were prepared in assay medium and 50 μL transferred to triplicate microcultures followed by 50 μL assay medium for a final volume of 200 μL. After an additional 48 hours at 37° C. in a 5% CO2 humidified incubator, microcultures were pulsed with tritiated thymidine (1 uCi/well) for 4 hours. Cultures were terminated by freezing at −70° C. for 24 hours followed by thawing and harvesting of microcultures using a Skatron Semiautomatic Cell Harvester. Samples were counted by liquid scintillation using a Wallac BetaPlace β counter. Results in Table 4 below show the IC50 for certain compounds of the present invention.

[5] = test system: ovariectomized (OVX) female Sprague Dawley rats; settings: rat, in vivo, po, 4 days
Protocol: In the examples illustrating the methods, a post-menopausal model was used in which effects of different treatments upon circulating lipids were determined.
as §1, §2, §4, §3

[6] = Table 2, oral daily 35 days in 20% cyclodextrin, 0.1 mg/kg, OVX control 5.5 ± 0.6, Sham 30.5 ± 4.3
[7] = Table 3, oral daily 35 days in 20% cyclodextrin, 0.1 mg/kg, OVX control 7.2 ± 2.2, Sham 44.7 ± 6.4
[8] = female, Sprague Dawley, 0.01 mg/kg, 4 days
[9] = female, Sprague Dawley, 0.1 mg/kg, 4 days
[10] = female, Sprague Dawley, 1 mg/kg, 4 days
[11] = female, Sprague Dawley, 10 mg/kg, 4 days
[12] = Homo sapiens, MCF7, read-out: IC50

SMILES	Uterine EPO (V. max) ([1]; 0.1 mg/kg)	Distal Femur Metaphysis (X-ray Image Analysis-Gray Score) [2, 6]	Distal Femur Metaphysis (X-ray Image Analysis-Gray Score) [2, 7]	Serum Cholesterol (% decrease vs. OVX) ([3]; dose 0.1 mg/kg)	Uterine EPO (V. max) [1, 8]	Uterine EPO (V. max) [1, 9]	Uterine EPO (V. max) [1, 10]	Uterine EPO (V. max) [1, 11]	IC50 [4, 12]	Uterine Weight (% increase vs. OVX) ([5]; 0.01 mg/kg)	Uterine Weight (% increase vs. OVX) ([5]; 0.1 mg/kg)	Uterine Weight (% increase vs. OVX) ([5]; 1 mg/kg)	Uterine Weight (% increase vs. OVX) ([5]; 10 mg/kg)	inhibition in vivo at 0.01 mg/kg [3]	inhibition in vivo at 0.1 mg/kg ([3]; dose 0.1 mg/kg)	inhibition in vivo at 1 mg/kg ([3]; dose 1.0 mg/kg)	inhibition in vivo at 10 mg/kg ([3]; dose 10.0 mg/kg)	other results
C#C[C@]1(O)CC[C@H]2[C@@H]3CCc4cc(O)ccc4[C@H]3CC[C@@]21C [EE2, 17α-ethynyl estradiol, reference compound]	116.4	32.8 ± 7.9	44.4 ± 4.8	81.4%	–	–	–	–	–	–	–	–	–	–	–	–	–	eosinophil infiltration into the uterus (number of eosinophils in the stromal layer, in words) [1]: substantial, expected increase in eosinophil infiltration; bone loss / femur density after ovariectomy (in words) ([2]; oral, 35 days): prevented this loss; serum cholesterol compared to ovariectomized control animals (in words) ([3]; oral, 4 days, EE2 at 0.1 mg/kg/day): caused a decrease in serum cholesterol
COc1ccc(-c2ccc3cc(OC)ccc3c2Cc2ccc(OCCN3CCCCC3)cc2)cc1.Cl [Example 1, [2-(4-Methoxyphenyl)-6-methoxynaphthalen-1-yl][4-[2-(1-piperidinyl)ethoxy]phenyl]methane hydrochloride]	–	24.7 ± 4.2	–	–	4.2	7.2	4.5	3.6	100 nM	−11.2%	23.1%	29.7%	12.2%	42.9%	59.9%	75%	63.4%	Distal Femur Metaphysis (X-ray Image Analysis-Gray Score) ([2]; Table 2, oral daily 35 days in 20% cyclodextrin, 1.0 mg/kg, OVX control 5.5 ± 0.6, Sham 30.5 ± 4.3): 21.7 ± 4.7; Distal Femur Metaphysis (X-ray Image Analysis-Gray Score) ([2]; Table 2, oral daily 35 days in 20% cyclodextrin, 10.0 mg/kg, OVX control 5.5 ± 0.6, Sham 30.5 ± 4.3): 21.9 ± 3.2
Cl.Oc1ccc(-c2ccc3cc(O)ccc3c2Cc2ccc(OCCN3CCCCC3)cc2)cc1 [Example 2, [2-(4-Hydroxyphenyl)-6-hydroxynaphthalen-1-yl][4-[2-(1-piperidinyl)ethoxy]phenyl]methane hydrochloride]	–	–	25.7 ± 5.9	–	4.5	4.5	4.8	4.2	0.1 nM	2.4%	24.6%	4.1%	2.6%	34.2%	63%	78.1%	58.8%	Distal Femur Metaphysis (X-ray Image Analysis-Gray Score) ([2]; Table 3, oral daily 35 days in 20% cyclodextrin, 0.01 mg/kg, OVX control 7.2 ± 2.2, Sham 44.7 ± 6.4): 19.6 ± 3.3; Distal Femur Metaphysis (X-ray Image Analysis-Gray Score) ([2]; Table 3, oral daily 35 days in 20% cyclodextrin, 1.0 mg/kg, OVX control 7.2 ± 2.2, Sham 44.7 ± 6.4): 21.5 ± 3.2; Distal Femur Metaphysis (X-ray Image Analysis-Gray Score) ([2]; Table 3, oral daily 35 days in 20% cyclodextrin, 10.0 mg/kg, OVX control 7.2 ± 2.2, Sham 44.7 ± 6.4): 30.0 ± 4.5
CCN(CC)CCOc1ccc(Cc2c(-c3ccc(O)cc3)ccc3cc(O)ccc23)cc1 [Example 24, [2-(4-hydroxyphenyl)-6-hydroxynaphthalen-1-yl][4-[2-(1-N,N-diethylamino)ethoxy]phenyl]methane]	13.8	–	–	69.2%	–	–	–	–	–	–	–	–	–	–	–	–	–	Uterine EPO (V. max) ([1]; 1 mg/kg): 55.8; Uterine EPO (V. max) ([1]; 10 mg/kg): 36.3; IC50 [4]: Not active; Serum Cholesterol (% decrease vs. OVX) ([3]; dose 1.0 mg/kg): 50.0%; Serum Cholesterol (% decrease vs. OVX) ([3]; dose 10.0 mg/kg): 48.4%
Oc1ccc(-c2ccc3cc(O)ccc3c2Cc2ccc(OCCN3CCCCCC3)cc2)cc1 [Example 27, [2-(4-Hydroxyphenyl)-6-hydroxynaphthalen-1-yl][4-[2-(1-hexamethyleneiminyl)ethoxy]phenyl]methane]	–	–	–	–	–	–	–	–	1 nM	–	–	–	–	–	–	–	–	–
